The test deals with T1, Ubiquitin Specific Protease 7 (USP-7) (Homo sapiens, UniProt Q93009).
T1 construct: gene USP7; recombinant USP-7 (BPS Bioscience kit #79256)
The experiment in a line: Ub-AMC fluorescence enzyme assay; supported by DARTS immunoblotting and t-LiP-MRM in HTLA-230 lysate. Type of test: biochemical.

T1 sequence (Q93009 whole entry): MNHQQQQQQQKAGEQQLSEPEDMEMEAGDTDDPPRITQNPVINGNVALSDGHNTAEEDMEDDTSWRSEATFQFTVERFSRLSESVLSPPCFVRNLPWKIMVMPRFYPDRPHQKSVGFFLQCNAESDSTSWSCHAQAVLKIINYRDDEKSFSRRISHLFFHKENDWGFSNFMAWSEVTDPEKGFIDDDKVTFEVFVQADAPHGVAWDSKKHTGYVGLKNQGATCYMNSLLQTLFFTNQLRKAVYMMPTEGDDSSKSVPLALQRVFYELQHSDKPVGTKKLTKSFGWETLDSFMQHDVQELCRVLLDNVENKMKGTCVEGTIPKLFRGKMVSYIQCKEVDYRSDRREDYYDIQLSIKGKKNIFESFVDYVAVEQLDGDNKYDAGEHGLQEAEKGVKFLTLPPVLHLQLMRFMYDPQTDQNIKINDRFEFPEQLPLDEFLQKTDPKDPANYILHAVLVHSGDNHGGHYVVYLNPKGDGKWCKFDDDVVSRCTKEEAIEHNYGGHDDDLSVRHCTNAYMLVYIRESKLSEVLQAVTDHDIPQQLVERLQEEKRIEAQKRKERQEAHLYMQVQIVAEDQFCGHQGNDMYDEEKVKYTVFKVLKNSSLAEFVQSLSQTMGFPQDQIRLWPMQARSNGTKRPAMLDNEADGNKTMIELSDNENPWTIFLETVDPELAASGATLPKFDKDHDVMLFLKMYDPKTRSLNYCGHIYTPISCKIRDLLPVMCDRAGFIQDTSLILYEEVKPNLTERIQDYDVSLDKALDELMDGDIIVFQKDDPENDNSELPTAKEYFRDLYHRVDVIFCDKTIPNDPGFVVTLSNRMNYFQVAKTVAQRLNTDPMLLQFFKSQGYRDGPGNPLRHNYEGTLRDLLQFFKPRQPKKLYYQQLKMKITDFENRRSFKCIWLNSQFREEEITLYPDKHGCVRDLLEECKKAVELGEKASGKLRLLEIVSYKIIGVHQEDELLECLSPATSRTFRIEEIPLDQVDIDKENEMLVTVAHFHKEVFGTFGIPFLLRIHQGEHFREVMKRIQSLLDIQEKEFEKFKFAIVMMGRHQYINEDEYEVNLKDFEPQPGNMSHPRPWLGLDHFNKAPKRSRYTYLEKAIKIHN

Molecule `CCOC(=O)c1cnn(CC(C)O)c1NC(=O)Nc1cccc(F)c1` (racemic) [STIRUR 41] registered a 50% inhibitory concentration (IC50) of 2770 ± 560 nM.

(Values after PMC10252683, “Targeting USP-7 by a Novel Fluorinated 5-Pyrazolyl-Urea Derivative” (International Journal of Molecular Sciences, 2023).)
